Source: patent US20220347144A1, “COMPOSITIONS AND METHODS FOR PREVENTING AND/OR REDUCING WEIGHT GAIN AND ASSOCIATED CONDITIONS” (University of Virginia Patent Foundation, priority 2019, published 2022)

What was measured:
Format in all cases: in vivo, mouse
C57Bl/6J mice [1] = assay: Body weight over 12 weeks on the diets
Protocol: (§1) Animals. Animal experiments were approved by the Animal Care and Use Committee of the University of Virginia (Charlottesville, Va., United States of America). C57Bl/6J mice were obtained from Jackson Laboratories (Bar Harbor, Me., United States of America). Mice were group housed in standard cages with up to five mice per cage with a 12 hour dark/light cycle. All mice were weighed once per week. Weekly food consumption was measured, with the amount consumed per cage averaged amongst the mice in the cage. Body composition was determined by use of an ECHOMRI™-100H Body Composition Analyzer (EchoMRI LLC, Houston, Tex., United States of America).
(§2) Diets. Diets were obtained from Research Diets (New Brunswick, N.J., United States of America). The low fat chow was D12450Ji (10 kcal % fat) and the high fat chow was D12492 (60 kcal % fat). These two chows were reformulated by replacing a portion of dietary fat with an ethyl ester of nervonic acid from Nu-Chek Prep (Elysian, Minn., United States of America) to produce isocaloric diets with nervonic acid at 6 g per kg of diet (0.6%). For the three most prevalent fatty acids in these diets: C16 comprised 14.4%, 11.7%, 18.5%, and 18.1%; C18:1 comprised 27.4%, 22.8%, 32%, and 31.4%; and C18:2 comprised 39.6%, 36.2%, 26.9%, and 26.5% of the fatty acid composition of the Cnt, Cnt+NA, HFD, and HFD+NA diets, respectively. Mice were started on diets at ˜8 weeks of age and given ad libitum access.

C57Bl/6J mice [2] = assay: Plasma C24:1-ceramides after 72 hours on the diets; conditions: control and HFDs; 72 hours on diets
Description: as §2
Sphingolipid and acylcarnitine measurements by liquid chromatography-mass spectrometry. Sphingolipids were analyzed as described previously (Wijesinghe et al., 2010) for FIG. 1B or with modifications described herein. Liver samples from rats fed a low or high fat diet were obtained from Scot Kimball's laboratory at the Pennsylvania State University (Hershey, Pa.). Mouse liver samples were analyzed with modifications as described previously (Pearson et al., 2020). […]

C57Bl/6J mice [3] = assay: Fasting and random-fed blood glucose; conditions: for fasting blood glucose / random-fed blood glucose: HFD+NA versus HFD, 8 weeks on diets
Protocol: (§3) Insulin Tolerance Test (ITT) and Glucose Tolerance Test (GTT) and analysis of blood glucose and plasma insulin. ITT and GTT were performed as described in Lansey et al., 2012. Briefly, for ITT, random-fed mice were given an intraperitoneal injection (IP) of insulin (0.75 U/kg in 0.9% NaCl). Blood glucose levels were determined by a glucometer (Contour Next EZ Blood Glucose Monitoring System, Bayer, Leverkusen, Germany) at the indicated time points after injection. For GTT, mice were fasted for 16 hours prior to testing. D-Glucose, prepared the day before, was administered via an IP injection (1 g/kg), and blood glucose levels were determined by a glucometer at the indicated time points after injection. Plasma insulin levels were determined using a STELLUX® brand Chemi Rodent Insulin ELISA kit (Cat. No. 80-INSMR-CHO1; APLCO, Salem, N.H., United States of America) or an Ultrasensitive Rat/Mouse Insulin ELISA kit, Low Range Assay (Cat. No. 90060; Crystal Chem, Downers Grove, Ill., United States of America). The luminescence assay was conducted using a VICTOR2 Plate Reader (Perkin Elmer, Waltham, Mass., United States of America).

C57Bl/6J mice [4] = assay: Insulin Tolerance Test (ITT)
Protocol: as §3

C57Bl/6J mice [5] = assay: Energy expenditure, respiratory exchange ratio and locomotion in metabolic cages
Protocol: For determination of energy expenditure, respiratory exchange ratios, and activity, mice were placed in an Oxymax metabolic chamber systems (Comprehensive Laboratory Animal Monitoring System, CLAMS, from Columbus Instruments (Columbus, Ohio, United States of America). Oxygen consumption (V02) and carbon dioxide production (VCO2) were determined for each mouse every 18 minutes over 72 hours with ambulatory activity assessed every minute over this same time period. Only the last two complete light and dark cycles (spanning 48 hours) were used for data analysis. Feces was collected from these studies and shipped to the Mouse Metabolic Phenotyping Core at the University of Texas Southwestern for bomb calorimetry analysis using a Parr 6200 Isoperibol Calorimeter (Parr Instrument Company, Moline, Ill., United States of America).

SIRT1 = assay: Liver transcript analysis by qRT-PCR; conditions: HFD+NA
Protocol: (§4) Transcript analysis. RNA was isolated from mouse liver by manual homogenization in TRIzol reagent (Invitrogen, Carlsbad, Calif., United States of America) following the manufacturer's instructions. Total RNA underwent DNase I treatment (New England Biolabs, Ipswich, Mass., United States of America) and cDNA was made using the ISCRIPT™ brand cDNA Synthesis Kit (Bio-Rad Laboratories, Hercules, Calif., United States of America). Quantitative real-time PCR was carried out using Bio-Rad SYBR® green probes (PPARα Bio-Rad Assay ID qMmuCID0005156; SIRT1 Bio-Rad Assay ID qMmuCID0015511; PGC1α Bio-Rad Assay ID qMmuCID0006032). The TATA binding protein (Bio-Rad Assay ID qMmuCID0040542) gene was used to normalize target gene abundance. Biological samples were run in triplicate.

PPARα = assay: Liver transcript analysis by qRT-PCR; conditions: HFD+NA
Protocol: as §4

PGC1α = assay: Liver transcript analysis by qRT-PCR; conditions: HFD+NA
Protocol: as §4

C57Bl/6J mice [6] = assay: Average food consumption over 12 weeks
Protocol: as §1

C57Bl/6J mice [7] = assay: Glucose Tolerance Test (GTT); conditions: HFD+NA versus HFD, 10 weeks on diets
Protocol: as §3

(Z)-tetracos-15-enoic acid [NA]
body weight gain (C57Bl/6J mice [1]; HFD+NA versus HFD, 12 weeks): significantly less body weight gain
body weights (C57Bl/6J mice [1]; HFD+NA versus control diet, 12 weeks): not significantly different
body weight gains over time (C57Bl/6J mice [1]; NA-enriched control diet versus control diet): significantly less body weight gains over time
plasma C24:1-ceramides (C57Bl/6J mice [2]): significant increases
fasting blood glucose (C57Bl/6J mice [3]): significant reductions
random-fed blood glucose (C57Bl/6J mice [3]): significant reductions
fasting blood glucose (C57Bl/6J mice [3]; listed as nervonic acid): significant reduction
random-fed blood glucose (C57Bl/6J mice [3]; listed as nervonic acid): significant reduction
blood glucose levels (C57Bl/6J mice [3]; HFD+NA versus control diet, random fed or fasted): not significantly different
blood glucose levels (C57Bl/6J mice [3]; control with NA diet versus control): No significant differences
response of blood glucose to insulin injection (C57Bl/6J mice [4]; HFD+NA, 11 weeks on diets): responded similarly to mice on control diets
response of blood glucose to insulin injection (C57Bl/6J mice [4]; HFD+NA, 11 weeks on diets, listed as nervonic acid): responded similarly to mice on the control diet
response of blood glucose to insulin injection (C57Bl/6J mice [4]; control diet containing NA): responded similar to mice on the control diet alone
response of blood glucose to insulin injection (C57Bl/6J mice [4]; control diet containing NA, listed as nervonic acid): responded similar to the control diet
ambulatory activity (C57Bl/6J mice [5]; HFD+NA versus HFD): similar
oxygen consumption (VO2) (C57Bl/6J mice [5]; HFD+NA versus HFD, light and dark cycle): significantly lower
carbon dioxide production (VCO2) (C57Bl/6J mice [5]; HFD+NA versus control and HFD groups): significant reduction
ambulatory activity (C57Bl/6J mice [5]; control+NA versus control): similar
heat production (C57Bl/6J mice [5]; control+NA versus control): No differences
respiratory exchange ratio (RER) (C57Bl/6J mice [5]; control+NA versus control, light and dark cycles): No statistical changes
SIRT1 mRNA levels in liver (SIRT1): restored
PPARα mRNA levels in liver (PPARα): increased
PGC1α mRNA levels in liver (PGC1α): restored
average food consumption (C57Bl/6J mice [6]; HFD+NA versus HFD, 12 weeks): similar
food consumption (C57Bl/6J mice [6]; control+NA versus control): not significantly different
glucose tolerance (glucose load, area under the curve) (C57Bl/6J mice [7]): significantly improved glucose tolerance
glucose tolerance (glucose load, area under the curve) (C57Bl/6J mice [7]; listed as nervonic acid): reduction in the glucose load
